The source of these data is US7135466B2 (Kirin Beer Kabushiki Kaisha, priority 1999, dated 2006).

Molecules are shown by their SMILES. Where two headings read alike, the source gives them in different places.

In test [1] the target is T1, c-kit (Homo sapiens, UniProt P10721).
T1 construct: MO7e (human megakaryocytic leukemia cell line) which had been arrested for 20 hr; endogenous in cells; host or cells: MO7e human megakaryocytic leukemia cell line
The experiment in a line: Inhibitory activity against c-kit autophosphorylation (MO7e cells, h-SCF). The test is classed as cell-based. To be noted: for IC50: MO7e cells, read-out: c-kit IC50. In a few lines: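 MO7e human megakaryocytic leukemia cells, arrested 20 hr, treated with compound 1 hr, then stimulated with 50 ng/ml h-SCF for 5 min and lysed. Lysates captured on immobilized anti-phosphotyrosine antibody, detected with anti-c-kit primary and HRP secondary antibody; absorbance at 450 nm.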

Test [2] addresses T2, PDGF-Ra (Homo sapiens, UniProt P16234).
T2 construct: host or cells: G-292 human osteosarcoma cells
Description: Inhibitory activity against PDGF-Ra phosphorylation by PDGF-AA stimulation using G292. The test is classed as cell-based. To be noted: for IC50: > means inhibition at indicated concentration not more than 50%, < and << not less than 50%, read-out: PDGF (E) IC50. Summed up: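 Phosphorylated PDGF-Ra was measured colorimetrically (450 nm) after tyrosine-phosphorylated proteins from G-292 lysates were bound to PY-20-coated wells and detected with anti-PDGF-Ra antibody. Compound preincubation lasted 1 hr, followed by 50 ng/ml PDGF-AA for 5 min.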

T1 sequence (P10721 26-976): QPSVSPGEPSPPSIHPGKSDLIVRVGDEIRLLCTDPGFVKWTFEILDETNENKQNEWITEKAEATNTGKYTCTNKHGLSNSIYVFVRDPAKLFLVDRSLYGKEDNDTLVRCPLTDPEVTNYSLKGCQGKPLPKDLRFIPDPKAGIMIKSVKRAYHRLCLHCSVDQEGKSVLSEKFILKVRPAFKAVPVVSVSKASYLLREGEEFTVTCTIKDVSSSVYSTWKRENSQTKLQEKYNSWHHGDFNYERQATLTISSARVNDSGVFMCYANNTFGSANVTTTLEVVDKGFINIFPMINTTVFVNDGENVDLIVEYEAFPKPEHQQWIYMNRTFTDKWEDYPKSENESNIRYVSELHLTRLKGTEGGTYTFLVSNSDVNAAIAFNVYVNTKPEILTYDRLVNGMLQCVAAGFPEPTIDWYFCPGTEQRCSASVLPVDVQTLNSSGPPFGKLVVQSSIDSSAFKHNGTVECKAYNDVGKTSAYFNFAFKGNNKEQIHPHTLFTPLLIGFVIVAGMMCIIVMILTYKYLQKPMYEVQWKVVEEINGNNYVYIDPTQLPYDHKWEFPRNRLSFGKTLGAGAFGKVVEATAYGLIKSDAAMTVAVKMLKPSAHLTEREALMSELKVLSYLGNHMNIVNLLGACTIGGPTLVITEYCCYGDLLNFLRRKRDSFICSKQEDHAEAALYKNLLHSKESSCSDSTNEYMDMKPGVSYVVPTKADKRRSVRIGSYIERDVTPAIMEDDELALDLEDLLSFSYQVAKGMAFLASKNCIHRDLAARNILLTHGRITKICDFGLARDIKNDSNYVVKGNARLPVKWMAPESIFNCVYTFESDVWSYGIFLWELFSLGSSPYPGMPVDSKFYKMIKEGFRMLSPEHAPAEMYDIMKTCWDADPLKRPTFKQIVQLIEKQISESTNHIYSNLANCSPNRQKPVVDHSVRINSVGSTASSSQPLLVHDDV
T2 sequence (P16234 24-1089): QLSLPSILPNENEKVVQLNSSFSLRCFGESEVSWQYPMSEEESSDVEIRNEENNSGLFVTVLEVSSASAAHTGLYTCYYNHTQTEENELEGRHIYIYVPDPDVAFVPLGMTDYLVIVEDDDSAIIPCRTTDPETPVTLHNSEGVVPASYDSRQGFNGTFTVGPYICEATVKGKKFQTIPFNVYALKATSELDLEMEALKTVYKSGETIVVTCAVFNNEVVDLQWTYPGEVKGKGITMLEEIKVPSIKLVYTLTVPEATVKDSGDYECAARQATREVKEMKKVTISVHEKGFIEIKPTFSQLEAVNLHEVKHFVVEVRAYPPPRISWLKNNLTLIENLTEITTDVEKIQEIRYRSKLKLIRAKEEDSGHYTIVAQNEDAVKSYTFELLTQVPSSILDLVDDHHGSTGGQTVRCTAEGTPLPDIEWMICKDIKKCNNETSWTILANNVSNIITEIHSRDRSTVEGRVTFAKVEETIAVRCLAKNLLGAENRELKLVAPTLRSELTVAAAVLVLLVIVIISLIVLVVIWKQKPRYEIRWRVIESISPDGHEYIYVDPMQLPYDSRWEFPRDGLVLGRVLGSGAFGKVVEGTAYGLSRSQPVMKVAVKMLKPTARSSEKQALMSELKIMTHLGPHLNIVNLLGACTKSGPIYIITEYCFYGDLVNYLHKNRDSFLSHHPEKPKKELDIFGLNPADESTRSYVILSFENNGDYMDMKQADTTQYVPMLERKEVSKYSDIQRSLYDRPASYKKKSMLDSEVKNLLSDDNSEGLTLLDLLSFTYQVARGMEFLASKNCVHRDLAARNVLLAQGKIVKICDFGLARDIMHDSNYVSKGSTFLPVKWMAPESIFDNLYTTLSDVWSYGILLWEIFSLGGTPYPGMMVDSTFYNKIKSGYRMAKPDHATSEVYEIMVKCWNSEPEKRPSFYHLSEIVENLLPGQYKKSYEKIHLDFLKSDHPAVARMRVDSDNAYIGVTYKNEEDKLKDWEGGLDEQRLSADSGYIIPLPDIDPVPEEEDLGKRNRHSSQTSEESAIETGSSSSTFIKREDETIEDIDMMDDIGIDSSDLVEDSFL

Turning to `COc1cc2nccc(Oc3cc(C)c(NC(=O)OC4CCCC4)cc3C)c2cc1OC` [Example 364, Cyclopentyl N-{4-[(6,7-dimethoxy-4-quinolyl)oxy]-2,5-dimethylphenyl}carbamate], the IC50 (as a rule, the concentration at which inhibition is half-maximal) is 98 nM in test [1] (h-SCF 50 ng/ml) and 29 nM in test [2] (Pharmacological Test Example 1).

As for `COc1cc2nccc(Oc3ccc(NC(=O)OC4CCCC4)c(C)c3C)c2cc1OC` [Example 365, Cyclopentyl N-{4-[(6,7-dimethoxy-4-quinolyl)oxy]-2,3-dimethylphenyl}carbamate], the figures for the IC50 in test [1] (h-SCF 50 ng/ml) and in test [2] (Pharmacological Test Example 1) were 47 nM and less than 10 nM, respectively.

Turning to `COc1cc2ncnc(Oc3ccc(NC(=O)OC4CCCC4)cc3)c2cc1OC` [Example 366, Cyclopentyl N-{4-[(6,7-dimethoxy-4-quinazolinyl)oxy]phenyl}carbamate], the IC50 was found to be 66 nM in test [1] (h-SCF 50 ng/ml) and 27 nM in test [2] (Pharmacological Test Example 1).

As to `COc1cc2ncnc(Oc3ccc(NC(=O)OC4CCCC4)c(Cl)c3)c2cc1OC` [Example 367, Cyclopentyl N-{2-chloro-4-[(6,7-dimethoxy-4-quinazolinyl)oxy]phenyl}carbamate], the figures for the IC50 in test [1] (h-SCF 50 ng/ml) and in test [2] (Pharmacological Test Example 1) were 207 nM and 55 nM, respectively.

For the compound `CCCCC(CCCC)OC(=O)Nc1ccc(Oc2ccnc3cc(OC)c(OC)cc23)cc1` [Example 368, 1-Butylpentyl N-{4-[(6,7-dimethoxy-4-quinolyl)oxy]phenyl}carbamate], the figures for the IC50 in test [1] (h-SCF 50 ng/ml) and in test [2] (Pharmacological Test Example 1) were 426 nM and 64 nM, respectively.

Consider `CCCCC(CCCC)OC(=O)Nc1cc(C)c(Oc2ccnc3cc(OC)c(OC)cc23)cc1C` [Example 369, 1-Butylpentyl N-{4-[(6,7-dimethoxy-4-quinolyl)oxy]-2,5-dimethylphenyl}carbamate], for which the inhibition (as a rule, how much of the control response was suppressed) at 1 µM in test [1] (Mo7e, figure in parentheses in −( ), at 1000 nM) is 36%. Further, the IC50 in test [2] (Pharmacological Test Example 1) is more than 100 nM.

`CCCCC(CCCC)OC(=O)Nc1ccc(Oc2ccnc3cc(OC)c(OC)cc23)c(C)c1C` [Example 370, 1-Butylpentyl N-{4-[(6,7-dimethoxy-4-quinolyl)oxy]-2,3-dimethylphenyl}carbamate]: the IC50 worked out at 585 nM in test [1] (h-SCF 50 ng/ml) and 74 nM in test [2] (Pharmacological Test Example 1).

`CCCCC(CCCC)OC(=O)Nc1ccc(Oc2ncnc3cc(OC)c(OC)cc23)cc1` [Example 371, 1-Butylpentyl N-{4-[(6,7-dimethoxy-4-quinazolinyl)oxy]phenyl}carbamate]: the values for the IC50 in test [1] (h-SCF 50 ng/ml) and in test [2] (Pharmacological Test Example 1) were 541 nM and less than 10 nM, respectively.

As for `C=CCOC(=O)Nc1cc(C)c(Oc2ccnc3cc(OC)c(OC)cc23)cc1C` [Example 373, Allyl N-{4-[(6,7-dimethoxy-4-quinolyl)oxy]-2,5-dimethylphenyl}carbamate], the IC50 in test [1] (h-SCF 50 ng/ml) amounted to 71 nM; in test [2] (Pharmacological Test Example 1), 43 nM.

On to `C=CCOC(=O)Nc1ccc(Oc2ccnc3cc(OC)c(OC)cc23)c(C)c1C` [Example 374, Allyl N-{4-[(6,7-dimethoxy-4-quinolyl)oxy]-2,3-dimethylphenyl}carbamate], for which the IC50 is less than 30 nM in test [1] (h-SCF 50 ng/ml) and less than 10 nM in test [2] (Pharmacological Test Example 1).

Take `C=CCOC(=O)Nc1ccc(Oc2ncnc3cc(OC)c(OC)cc23)cc1` [Example 375, Allyl N-{4-[(6,7-dimethoxy-4-quinazolinyl)oxy]phenyl}carbamate]: the IC50 in test [1] (h-SCF 50 ng/ml) came out at 144 nM; in test [2] (Pharmacological Test Example 1), 74 nM.

For `COc1cc2nccc(Oc3ccc(NC(=O)OCCCc4ccccc4)cc3)c2cc1OC` [Example 376, 3-Phenylpropyl N-{4-[(6,7-dimethoxy-4-quinolyl)oxy]phenyl}carbamate], the IC50 in test [1] (h-SCF 50 ng/ml) is 41 nM; in test [2] (Pharmacological Test Example 1), less than 10 nM.

Consider `COc1cc2nccc(Oc3cc(C)c(NC(=O)OCCCc4ccccc4)cc3C)c2cc1OC` [Example 377, 3-Phenylpropyl N-{4-[(6,7-dimethoxy-4-quinolyl)oxy]-2,5-dimethylphenyl}carbamate], for which the IC50 is 151 nM in test [1] (h-SCF 50 ng/ml) and 21 nM in test [2] (Pharmacological Test Example 1).

In the case of `COc1cc2nccc(Oc3ccc(NC(=O)OCCCc4ccccc4)c(C)c3C)c2cc1OC` [Example 378, 3-Phenylpropyl N-{4-[(6,7-dimethoxy-4-quinolyl)oxy]-2,3-dimethylphenyl}carbamate], the IC50 in test [1] (h-SCF 50 ng/ml) is 92 nM; in test [2] (Pharmacological Test Example 1) it was 14 nM.

In the case of `COc1cc2ncnc(Oc3ccc(NC(=O)OCCCc4ccccc4)c(Cl)c3)c2cc1OC` [Example 379, 3-Phenylpropyl N-{2-chloro-4-[(6,7-dimethoxy-4-quinazolinyl)oxy]phenyl}carbamate], the IC50 stood at 624 nM in test [1] (h-SCF 50 ng/ml) and 11 nM in test [2] (Pharmacological Test Example 1).

Regarding `COc1cc2nccc(Oc3ccc(NC(=O)OCC4CC4)cc3)c2cc1OC` [Example 380, Cyclopropylmethyl N-{4-[(6,7-dimethoxy-4-quinolyl)oxy]phenyl}carbamate], the IC50 in test [1] (h-SCF 50 ng/ml) was 45 nM; in test [2] (Pharmacological Test Example 1), less than 10 nM.

As to `COc1cc2nccc(Oc3ccc(NC(=O)OCC4CC4)c(C)c3C)c2cc1OC` [Example 382, Cyclopropylmethyl N-{4-[(6,7-dimethoxy-4-quinolyl)oxy]-2,3-dimethylphenyl}carbamate], the IC50 in test [1] (h-SCF 50 ng/ml) is 28 nM; in test [2] (Pharmacological Test Example 1), less than 10 nM.

`COc1cc2ncnc(Oc3ccc(NC(=O)OCC4CC4)cc3)c2cc1OC` [Example 383, Cyclopropylmethyl N-{4-[(6,7-dimethoxy-4-quinazolinyl)oxy]phenyl}carbamate]: the IC50 in test [1] (h-SCF 50 ng/ml) stood at 90 nM; in test [2] (Pharmacological Test Example 1) it was 74 nM.

Consider `COc1cc2nccc(Oc3ccc(NC(=O)OCC4CCC4)cc3)c2cc1OC` [Example 385, Cyclobutylmethyl N-{4-[(6,7-dimethoxy-4-quinolyl)oxy]phenyl}carbamate], for which the IC50 is 87 nM in test [1] (h-SCF 50 ng/ml) and less than 10 nM in test [2] (Pharmacological Test Example 1).

`COc1cc2nccc(Oc3cc(C)c(NC(=O)OCC4CCC4)cc3C)c2cc1OC` [Example 386, Cyclobutylmethyl N-{4-[(6,7-dimethoxy-4-quinolyl)oxy]-2,5-dimethylphenyl}carbamate]: the IC50 in test [1] (h-SCF 50 ng/ml) was 105 nM; in test [2] (Pharmacological Test Example 1), 20 nM.

As to `COc1cc2nccc(Oc3ccc(NC(=O)OCC4CCC4)c(C)c3C)c2cc1OC` [Example 387, Cyclobutylmethyl N-{4-[(6,7-dimethoxy-4-quinolyl)oxy]-2,3-dimethylphenyl}carbamate], the figures for the IC50 in test [1] (h-SCF 50 ng/ml) and in test [2] (Pharmacological Test Example 1) were 31 nM and less than 10 nM, respectively.

In the case of `COc1cc2ncnc(Oc3ccc(NC(=O)OCC4CCC4)cc3)c2cc1OC` [Example 388, Cyclobutylmethyl N-{4-[(6,7-dimethoxy-4-quinazolinyl)oxy]phenyl}carbamate], the values for the IC50 in test [1] (h-SCF 50 ng/ml) and in test [2] (Pharmacological Test Example 1) were 60 nM and 12 nM, respectively.

Regarding `COc1cc2ncnc(Oc3cc(C)c(NC(=O)OC4CCCCC4)cc3C)c2cc1OC` [Example 390, Cyclohexyl N-{4-[(6,7-dimethoxy-4-quinazolinyl)oxy]-2,5-dimethylphenyl}carbamate], the figures for the IC50 in test [1] (h-SCF 50 ng/ml) and in test [2] (Pharmacological Test Example 1) were 400 nM and 33 nM, respectively.

`COc1cc2ncnc(Oc3ccc(NC(=O)OC4CCCCC4)c(C)c3C)c2cc1OC` [Example 391, Cyclohexyl N-{4-[(6,7-dimethoxy-4-quinazolinyl)oxy]-2,3-dimethylphenyl}carbamate]: the IC50 in test [1] (h-SCF 50 ng/ml) worked out at 129 nM; in test [2] (Pharmacological Test Example 1), 13 nM.

`COc1cc2ncnc(Oc3cc(C)c(NC(=O)OC4CCCC4)cc3C)c2cc1OC` [Example 392, Cyclopentyl N-{4-[(6,7-dimethoxy-4-quinazolinyl)oxy]-2,5-dimethylphenyl}carbamate]: the IC50 in test [1] (h-SCF 50 ng/ml) was 432 nM; in test [2] (Pharmacological Test Example 1), more than 100 nM. Besides, the inhibition at 0.1 µM in test [2] (G292, figure in parentheses in >100( ), at 100 nM, read-out: PDGF (E) inhibition (%) at 100 nM) came out at 38%.

As to `COc1cc2ncnc(Oc3ccc(NC(=O)OC4CCCC4)c(C)c3C)c2cc1OC` [Example 393, Cyclopentyl N-{4-[(6,7-dimethoxy-4-quinazolinyl)oxy]-2,3-dimethylphenyl}carbamate], the IC50 stood at 90 nM in test [1] (h-SCF 50 ng/ml) and 82 nM in test [2] (Pharmacological Test Example 1).

Regarding `COc1cc2nccc(Oc3ccc(NC(=O)OCC4CCCC4)cc3)c2cc1OC` [Example 394, Cyclopentylmethyl N-{4-[(6,7-dimethoxy-4-quinolyl)oxy]phenyl}carbamate], the IC50 in test [1] (h-SCF 50 ng/ml) was 133 nM; in test [2] (Pharmacological Test Example 1) it was less than 10 nM.

For the compound `COc1cc2nccc(Oc3cc(C)c(NC(=O)OCC4CCCC4)cc3C)c2cc1OC` [Example 395, Cyclopentylmethyl N-{4-[(6,7-dimethoxy-4-quinolyl)oxy]-2,5-dimethylphenyl}carbamate], the IC50 in test [1] (h-SCF 50 ng/ml) came out at 226 nM; in test [2] (Pharmacological Test Example 1), 19 nM.

As to `COc1cc2nccc(Oc3ccc(NC(=O)OCC4CCCC4)c(C)c3C)c2cc1OC` [Example 396, Cyclopentylmethyl N-{4-[(6,7-dimethoxy-4-quinolyl)oxy]-2,3-dimethylphenyl}carbamate], the IC50 in test [1] (h-SCF 50 ng/ml) amounted to 86 nM; in test [2] (Pharmacological Test Example 1), 19 nM.

For `COc1cc2ncnc(Oc3ccc(NC(=O)OCC4CCCC4)cc3)c2cc1OC` [Example 397, Cyclopentylmethyl N-{4-[(6,7-dimethoxy-4-quinazolinyl)oxy]phenyl}carbamate], the IC50 in test [1] (h-SCF 50 ng/ml) was 77 nM; in test [2] (Pharmacological Test Example 1), less than 10 nM.

For the compound `COc1cc2ncnc(Oc3ccc(NC(=O)OCC4CCCC4)c(Cl)c3)c2cc1OC` [Example 398, Cyclopentylmethyl N-{2-chloro-4-[(6,7-dimethoxy-4-quinazolinyl)oxy]phenyl}carbamate], the IC50 in test [1] (h-SCF 50 ng/ml) came to 462 nM; in test [2] (Pharmacological Test Example 1) it was 33 nM.

Turning to `COc1cc2ncnc(Oc3ccc(NC(=O)OCCN4CCOCC4)cc3)c2cc1OC` [Example 399, 2-Morpholinoethyl N-{4-[(6,7-dimethoxy-4-quinazolinyl)oxy]phenyl}carbamate], the values for the 50% inhibitory concentration (IC50) in test [1] (50 ng/ml h-SCF) and in test [2] were 327 nM and 63 nM, respectively.
